The values that follow are results of earlier work, collected in patent US20250090476A1, “PHARMACEUTICAL COMPOSITION AND BREXPIPRAZOLE ORALLY SOLUABLE FILM” (WISDOM PHARMACEUTICAL CO., LTD., priority 2022, published 2025).

Each structure is given as a SMILES string.

For the compound `O=c1ccc2ccc(OCCCCN3CCN(c4cccc5sccc45)CC3)cc2[nH]1` [Brexpiprazole], the solubility entry is “low”.
